Each molecule was assayed on Phospholipidosis (assay: Literature-mined public compounds from Kruhlak et al phospholipidosis modelling dataset).

Row | Compound | Phospholipidosis
1 | CN[C@@H]1[C@H](O)[C@H](NC)[C@H]2O[C@@]3(O)C(=O)C[C@@H](C)O[C@H]3O[C@@H]2[C@H]1O [SPECTINOMYCIN] | Positive: weak inducer based on presence of foamy macrophages and cytoplasmic vacuolations
2 | O=C1CSC2(CCN(CCCN3c4ccccc4Sc4ccc(Cl)cc43)CC2)N1 [SPICLOMAZINE] | Negative: based on the absence of positive reported data from WMDD
3 | N=C(N)c1ccc(/C=C/c2ccc(C(=N)N)cc2)cc1 [STILBAMIDINE] | Positive: weak inducer based on presence of foamy macrophages and cytoplasmic vacuolations
4 | [H]/N=C(/N)N[C@H]1[C@H](O)[C@@H](O)[C@H](O[C@@H]2O[C@@H](C)[C@](O)(C=O)[C@H]2O[C@@H]2O[C@@H](CO)[C@H](O)[C@@H](O)[C@@H]2NC)[C@@H](N/C(N)=N\[H])[C@@H]1O [STREPTOMYCIN] | Negative: based on the absence of positive reported data from WMDD
5 | O=C1C[C@@H]2OCC=C3CN4CC[C@]56c7ccccc7N1[C@H]5[C@H]2[C@H]3C[C@H]46 [STRYCHNINE] | Negative: based on the absence of positive reported data from WMDD
6 | O=C(O)CCC(=O)O [SUCCINIC ACID] | Negative: based on the absence of positive reported data from WMDD
7 | COc1cc(NS(=O)(=O)c2ccc(N)cc2)nc(OC)n1 [SULFADIMETHOXINE] | Negative: based on the absence of positive reported data from WMDD
8 | COc1ncnc(NS(=O)(=O)c2ccc(N)cc2)c1OC [SULFADOXINE] | Negative: based on the absence of positive reported data from WMDD
9 | Cc1cc(NS(=O)(=O)c2ccc(N)cc2)no1 [SULFAMETHOXAZOLE] | Negative: confirmed by electron microscopy
10 | O=C1OC(c2ccc(O)c(S(=O)(=O)O)c2)(c2ccc(O)c(S(=O)(=O)O)c2)c2c(Br)c(Br)c(Br)c(Br)c21 [SULFOBROMOPHTHALEIN] | Negative: based on the absence of positive reported data from WMDD
11 | Cc1ccc(C(=O)Nc2ccc(S(=O)(=O)O)c3cc(S(=O)(=O)O)cc(S(=O)(=O)O)c23)cc1NC(=O)c1cccc(NC(=O)Nc2cccc(C(=O)Nc3cc(C(=O)Nc4ccc(S(=O)(=O)O)c5cc(S(=O)(=O)O)cc(S(=O)(=O)O)c45)ccc3C)c2)c1 [SURAMIN] | Positive: weak inducer based on presence of foamy macrophages and cytoplasmic vacuolations
12 | C[N+](C)(C)CCOC(=O)CCC(=O)OCC[N+](C)(C)C [SUXAMETHONIUM] | Negative: based on the absence of positive reported data from WMDD
13 | CC/C(=C(\c1ccccc1)c1ccc(OCCN(C)C)cc1)c1ccccc1 [TAMOXIFEN] | Positive: strong inducer confirmed by electron microscopy
14 | C[C@]1(Cn2ccnn2)[C@H](C(=O)O)N2C(=O)C[C@H]2S1(=O)=O [TAZOBACTAM] | Negative: based on the absence of positive reported data from WMDD
15 | COc1cc2nc(N3CCN(C(=O)C4CCCO4)CC3)nc(N)c2cc1OC (stereo unspecified) [TERAZOSIN] | Negative: based on the absence of positive reported data from WMDD
16 | CN(C/C=C/C#CC(C)(C)C)Cc1cccc2ccccc12 [TERBINAFINE] | Negative: based on the absence of positive reported data from WMDD
17 | CC(C)(C)NCC(O)c1cc(O)cc(O)c1 (stereo unspecified) [TERBUTALINE] | Negative: based on the absence of positive reported data from WMDD
18 | CC1(O)CCC(C(C)(C)O)CC1.O (stereo unspecified) [TERPIN HYDRATE] | Negative: based on the absence of positive reported data from WMDD
19 | CN(C)[C@@H]1C(O)=C(C(N)=O)C(=O)[C@@]2(O)C(O)=C3C(=O)c4c(O)cccc4[C@@](C)(O)[C@H]3C[C@@H]12 [TETRACYCLINE] | Negative: confirmed by electron microscopy
20 | O=C1CCC(N2C(=O)c3ccccc3C2=O)C(=O)N1 (stereo unspecified) [THALIDOMIDE] | Negative: based on the absence of positive reported data from WMDD
21 | CS(=O)(=O)c1ccc([C@H](O)[C@@H](COC(=O)CN)NC(=O)C(Cl)Cl)cc1 [THIAMPHENICOL GLYCINATE] | Negative: based on the absence of positive reported data from WMDD

Row | Compound | Phospholipidosis
22 | CS(=O)(=O)c1ccc([C@@H](O)[C@@H](CO)NC(=O)C(Cl)Cl)cc1 [THIAMPHENICOL] | Negative: based on the absence of positive reported data from WMDD
23 | CCCC(C)C1(CC)C(=O)NC(=S)NC1=O (stereo unspecified) [THIOPENTAL] | Negative: based on the absence of positive reported data from WMDD
24 | CC(=O)OCCN1CCN(CCCN2c3ccccc3Sc3ccc(Cl)cc32)CC1 [THIOPROPAZATE] | Negative: based on the absence of positive reported data from WMDD
25 | CSc1ccc2c(c1)N(CCC1CCCCN1C)c1ccccc1S2 (stereo unspecified) [THIORIDAZINE] | Positive: weak inducer based on presence of foamy macrophages and cytoplasmic vacuolations
26 | CN1CCN(CC/C=C2/c3ccccc3Sc3ccc(S(=O)(=O)N(C)C)cc32)CC1 [THIOTHIXENE] | Negative: based on the absence of positive reported data from WMDD
27 | O=c1cc[nH]c(=S)[nH]1 [THIOURACIL] | Negative: based on the absence of positive reported data from WMDD
28 | Cc1ccsc1C(=CCCN1CCC[C@@H](C(=O)O)C1)c1sccc1C [TIAGABINE] | Negative: based on the absence of positive reported data from WMDD
29 | O=C(Cn1c(=O)sc2ccc(Cl)cc21)N1CCN(CCO)CC1 [TIARAMIDE] | Negative: based on the absence of positive reported data from WMDD
30 | Clc1ccccc1CN1CCc2sccc2C1 [TICLOPIDINE] | Negative: based on the absence of positive reported data from WMDD
31 | CCN(CC)CCOc1ccc2c(c1)C(=O)c1cc(OCCN(CC)CC)ccc1-2 [TILORONE] | Positive: strong inducer confirmed by electron microscopy
32 | O=C(O)C1CSCN1 (stereo unspecified) [TIMONACIC] | Negative: based on the absence of positive reported data from WMDD
33 | CC(S)C(=O)NCC(=O)O (stereo unspecified) [TIOPRONIN] | Negative: based on the absence of positive reported data from WMDD
34 | Clc1ccc2nsnc2c1NC1=NCCN1 [TIZANIDINE] | Negative: based on the absence of positive reported data from WMDD
35 | NC[C@H]1O[C@H](O[C@H]2[C@H](O)[C@@H](O[C@H]3O[C@H](CO)[C@@H](O)[C@H](N)[C@H]3O)[C@H](N)C[C@@H]2N)[C@H](N)C[C@@H]1O [TOBRAMYCIN] | Positive: strong inducer confirmed by electron microscopy
36 | Cc1ccc(C(=O)c2cc(O)c(O)c([N+](=O)[O-])c2)cc1 [TOLCAPONE] | Negative: based on the absence of positive reported data from WMDD
37 | Cc1ccc(C(=O)C(C)CN2CCCCC2)cc1 (stereo unspecified) [TOLPERISONE] | Negative: based on the absence of positive reported data from WMDD
38 | CN(C)CCOc1ccc(/C(=C(/CCCl)c2ccccc2)c2ccccc2)cc1 [TOREMIFENE] | Negative: based on the absence of positive reported data from WMDD
39 | COc1cccc(C2(O)CCCCC2CN(C)C)c1 (stereo unspecified) [TRAMADOL] | Negative: based on the absence of positive reported data from WMDD
40 | CCOC(=O)[C@H](CCc1ccccc1)N[C@@H](C)C(=O)N1[C@H](C(=O)O)C[C@H]2CCCC[C@@H]21 [TRANDOLAPRIL] | Negative: based on the absence of positive reported data from WMDD
41 | OCC(Br)(Br)Br [TRIBROMOETHANOL] | Negative: based on the absence of positive reported data from WMDD

— ChEMBL document CHEMBL1697821, “Development of a phospholipidosis database and predictive quantitative structure-activity relationship (QSAR) models” (Toxicol Mech Methods, 2008)
